Measurements taken from patent US10577406B2, “FKBP-L polypeptides and uses in angiogenesis-mediated disorders” (ALMAC DISCOVERY LIMITED, priority 2006, dated 2020).

What was measured:
[1] = system: HMEC-1 (microvascular endothelial cells; CD44+ve); assay: cell invasion in a modified Boyden chamber system, HMEC-1; assay type: cell-based, Human; settings: 48 h
Description: (§1) Twelve well plate polycarbonate inserts were divided into two groups with half remaining uncoated and half coated with 100 μg/cm^2 of Matrigel. The coated inserts were allowed to dry overnight at room temperature in a sterile tissue culture hood. The required cell line; HMEC-1, PC3 or MDA231 was trypsinised, re-suspended in fresh medium and the cell number calculated. 5×10^5 cells, in a total volume of 500 μl, were added to the insert (top chamber) and 1.5 ml of complete medium added to the bottom chamber of the plate as a stimulus for invasion. FKBP-L 24mer was added to both the upper and lower chamber of the plate at the required concentration in the experimental wells. The plate was incubated for 24 h (PC3 or MDA231) or 48 h (HMEC-1).
(§2) The inserts were carefully removed from their 12 well plate and inserts without Matrigel coating were placed directly into Carnoys fixative. […]
(§3) The polycarbonate inserts were cut from the holders and placed on to mounting medium on a microscope slide. […] The slides were stored at 4° C. until analysed.
(§4) Ten images from each insert were captured and the number of fluorescent cells per image was analysed by Lucia Imaging software. The ratio of cells visible on non-coated inserts compared to cells visible on Matrigel coated inserts was expressed as % invasion. […]

[2] = system: PC3 (Prostate; CD44+ve); assay: cell invasion in a modified Boyden chamber system, PC3; assay type: cell-based; settings: 24 h
Description: as §1, §2, §3, §4

[3] = system: MDA-231 (breast; CD44+ve); assay: cell invasion in a modified Boyden chamber system, MDA-231; assay type: cell-based; settings: 24 h
Description: as §1, §2, §3, §4

[4] = system: mouse endothelial cells, 2H-11; assay: wound scrape assay in a mouse endothelial cell line; assay type: cell-based; settings: 10^−14-10^−7 M; 7 hours
Description: This experiment evaluated the ability of the FKBP-L 24mer to inhibit endothelial cell migration over a dose ranges spanning from 10^−14 M to 10^−7 M. The in vitro migration assay used in these studies is a modified version of the method described by Ashton et al (1999) see supra. In this assay mouse endothelial cells, 2H-11, were obtained from the American Tissue Culture Collection and were grown in D-MEM containing 10% FCS. They were plated into individual chambers on a glass slide and grown to 90% confluence overnight. The medium was removed and the monolayer wounded. The monolayer was re-supplemented with fresh medium and the required volume of the FKBPL 24mer peptide was added to achieve a dose range from 10^−14-10^−7 M. The monolayers were incubated for 7 hours and then fixed in 4% PBS buffered paraformaldehyde.
The extent of “wound” closure was blindly assessed microscopically by an independent investigator and quantified using a calibrated eyepiece graticule (1 mm/100 μm graduation) at 20× magnification (Olympus BX 50). The extent of closure in the FKBP-L 24mer treated slides was compared to time matched sham treated controls and the % inhibition of wound closure compared to time matched controls calculated.

[5] = system: DU145 tumours; assay: prostate cancer xenograft model, daily IP injection; assay type: in vivo, SCID mice
Description: Du145 (prostate carcinoma) cells were obtained from Cancer Research UK and cultured in RPMI 1640 medium (Invitrogen) supplemented with 10% foetal calf serum. All cell lines were grown as monolayers, incubated at 37° C. under 5% CO2.
24 male immunocompromised (severe combined immunodeficient) mice were used (Harlan). The mice were acclimatised and caged in groups of 5 or less in an isolator. Du145 (prostate carcinoma) cells were cultured as previously described. Sub-confluent cells were harvested and the cell concentration was adjusted to 5×10^7 cells/ml in PBS. The dorsum of each mouse was shaved. After administrating aesthetic, each mouse received intra-dermal injections of 5×10^6 Du145 tumour cells (100 μl) bilaterally into the rear dorsum with a 26-gauge needle. The tumours were allowed to grow until they reached a volume of 150-175 mm^3. The mice were randomly divided into four treatment groups: (a) Control: PBS only (8 mice); (b) 24mer FKBPL peptide: 0.3 mg/kg/day (6 mice); (c) 24mer FKBPL peptide: 3×10^−3 mg/kg/day (6 mice); and (d) 24mer FKBPL peptide: 3×10^−4 mg/kg/day (5 mice).
The mice received daily IP injections (100 μl) of the above treatments. The weight and the tumour volume of each mouse were recorded every 2 days. Tumour volume was calculated as: Length×Breadth×Height×0.5236. Twenty-one days after initial treatment the following animals were sacrificed: 0.3 mg/kg/day 24mer FKBPL (2 mice), 3×10^−3 mg/kg/day (2 mice), 3×10^−4 mg/kg/day (1 mouse) and PBS (2 mice). The tumours were excised and stored in saline formalin solution for future histopathological analysis.

[6] = system: HMEC-1 cells; assay: MTT assay of cell viability/proliferation; settings: 24mer 10^−5-10^−10M, 1-57mer 10^−9M and 10^−10M; 24 hours and 48 hours
Description: (§5) An MTT assay was used to measure cell viability/proliferation.
(§6) An MTT assay was used to measure cell viability and/or proliferation. Briefly, HMEC-1 cells were seeded (2.5×10^3) in 96 well plates and allowed to attach for 5 h. The cells were treated with FKBP-L 24mer (SEQ ID NO: 10) (10^−5-10^−10M), 1-57mer (SEQ ID NO: 6) (10^−9M and 10^−10M) or medium (control).
(§7) Post incubation the cells were exposed to a 5 mgml^−1 solution of 3-(-4,5-dimethylthiazol-2-yl) 2,5 diphenyl tetrazolium (MTT) for 4 h. The cells were aspirated and 200 μl of DMSO added to reduce the salt and induce a colour change.

[7] = system: MCF-7 (breast tumor cell line; CD44 −ve); assay: tumor cell migration, wound closure assay, MCF-7; assay type: cell-based; settings: MCF-7 (CD44 −ve); 24 h
Description: The in vitro migration assay used in these studies is a modified version of the method described by Ashton et al. (1999) see supra. PC3 (prostate tumor cell line; CD44 positive; CD44 +ve), MDA231 (breast tumor cell line; CD44 +ve), HT29 (Colorectal tumor cell line; CD44 +ve), MCF-7 (breast tumor cell line; CD44 negative; CD44 −ve) and DU145 (prostate tumor cell line; CD44 −ve) were plated into individual chambers on a glass slide and grown to 90% confluence overnight. The medium was removed and the monolayers wounded. […] The monolayers were incubated for 24 h and then fixed in 4% PBS buffered paraformaldehyde.
The extent of “wound” closure was blindly assessed microscopically by an independent investigator and quantified using a calibrated eyepiece graticule (1 mm/100 μm graduation) at 20× magnification (Olympus BX 50). The extent of closure in the FKBP-L treated slides was compared to time matched sham treated controls and the % inhibition of wound closure compared to time matched controls calculated.

[8] = system: HMEC-1 cells
Description: as §5, §6, §7

“H-QIRQQPRDPPTETLELEVSPDPAS-OH [FKBP-L 24mer]” was tested. Which “effect on cell invasion through Matrigel” value [1] did it give?
The value was “potent inhibitor”.

What about the “effect on cell invasion through Matrigel” value [2] of the same molecule?
The value was “potent inhibitor”.

And the “effect on cell invasion through Matrigel” value [3]?
Its value is “potent inhibitor”.

What about the “effect on wound closure in mouse endothelial cells” value [4] of the same molecule?
The value was “inhibited wound closure”.

What about the “tumors compared with controls (Kaplan-Meier, time to 3× treatment volume)” value ([5]; 0.0003 mg/kg/day, daily IP) of the same molecule?
Its value is “not significantly different from controls”.

What about the “time for tumours to reach 3× their treatment volume (Kaplan-Meier survival)” value ([5]; 0.003 mg/kg/day, daily IP) of the same molecule?
Its value is “significantly later than controls”.

And the “time for tumours to reach 3× their treatment volume (Kaplan-Meier survival)” value ([5]; 0.3 mg/kg/day, daily IP)?
Its value is “significantly later than controls”.

What about the “tumours that failed to reach their volume tripling within the duration of the experiment (all but the stated number)” value ([5]; 0.3 mg/kg/day, daily IP) of the same molecule?
The value was “All but two tumours (of 6)”.

And the “growth of DU145 tumours compared to vehicle only treated tumours” value ([5]; 0.3 mg/kg/day, daily i.p.)?
Its value is “significantly slowed the growth”.

What about the “growth of DU145 tumours compared to vehicle only treated tumours” value ([5]; 3×10^−3 mg/kg/day, daily i.p.) of the same molecule?
Its value is “significantly slowed the growth”.

What about the “body weight after daily treatment (tolerability)” value ([5]; daily IP injection) of the same molecule?
The value was “None of the animals lost weight”.

And the tumour appearance ([5]; most effective doses, daily i.p., a number of tumours)?
Its tumour appearance is “evidence of a necrotic centre”.

What about the “effect on proliferation of HMEC-1 cells compared to time-matched controls” value [6] of the same molecule?
Its value is “neither of the peptides had any significant effect”.

B1: full length recombinant FKBP-L: recombinant full length his-tagged FKBP-L protein (SEQ ID NO: 1) expressed in BL21 (DE3) (protein, listed as Homo sapiens)
chain: MRGSHHHHHHGMASMTGGQQMGRDLYDDDDKDRWGSMETPPVNTIGEKDTSQPQQEWEKNLRENLDSVIQIRQQPRDPPTETLELEVSPDPASQILEHTQGAEKLVAELEGDSHKSHGSTSQMPEALQASDLWYCPDGSFVKKIVIRGHGLDKPKLGSCCRVLALGFPFGSGPPEGWTELTMGVGPWREETWGELIEKCLESMCQGEEAELQLPGHTGPPVGLTLASFTQGRDSWELETSEKEALAREERARGTELFRAGNPEGAARCYGRALRLLLTLPPPGPPERTVLHANLAACQLLLGQPQLAAQSCDRVLEREPGHLKALYRRGVAQAALGNLEKATADLKKVLAIDPKNRAAQEELGKVVIQGKNQDAGLAQGLRKMFG
modifications: His tag
Which results are given for B1?
effect on tumor cell migration [7]: not in CD44 −ve tumor cell lines; effect on proliferation of HMEC-1 cells compared to time matched controls [8]: no significant effect
